Patent publication US20060094682A1, “Kinase inhibitors for the treatment of diabetes and obesity” (Odyssey Thera, Inc., priority 2004, published 2006)

Tests used:
human T cells = conditions: read-out: IC50 anti-CD3-stimulated tyrosine phosphorylation of human T cells; cited from earlier work
Hck = Hck (Homo sapiens, UniProt P08631); conditions: cited from earlier work
[1] = system: PPAR-[Gamma]:SRC-1 complexes; experiment: PPAR-[Gamma]:SRC-1 fluorescence protein-fragment complementation assay (PCA), drug treatment; type: cell-based, human; conditions: HEK293 cells; for effect on PPAR-[Gamma]:SRC-1 complex: 10 micromolar PP3 or 1 micromolar PD 153035 for 6.5 hours prior to rosiglitazone for 1.5 hours
Source text: Reporter fragments for PCA were generated by oligonucleotide synthesis (Blue Heron Biotechnology, Bothell, Wash.). First, oligonucleotides coding for polypeptide fragments YFP[1]and YFP[2] […] Next, PCR mutagenesis was used to generate the mutant fragments IFP[1] and IFP[2]. […] The YFP[1], YFP[2], IFP[1] and IFP[2] fragments were amplified by PCR to incorporate restriction sites and a linker sequence, described below, in configurations that would allow fusion of a gene of interest to either the 5′- or 3′-end of each reporter fragment. […] Additionally, these vectors still retain the SV40 origin, allowing for episomal expression in cell lines expressing the SV40 large T antigen (e.g. HEK293T, Jurkat or COS).
Recombinants in the host strains DH5-alpha (Invitrogen, Carlsbad, Calif.) or XL1 Blue MR (Stratagene, La Jolla, Calif.) were screened by colony PCR, and clones containing inserts of the correct size were subjected to end sequencing to confirm the presence of the gene of interest and in-frame fusion to the appropriate reporter fragment. A subset of fusion constructs were selected for full-insert sequencing by primer walking. DNAs were isolated using Qiagen MaxiPrep kits (Qiagen, Chatsworth, Calif.). PCR was used to assess the integrity of each fusion construct, by combining the appropriate gene-specific primer with a reporter-specific primer to confirm that the correct gene-fusion was present and of the correct size with no internal deletions.
HEK293 cells were maintained in MEM alpha medium (Invitrogen) supplemented with 10% FBS (Gemini Bio-Products), 1% penicillin, and 1% streptomycin, and grown in a 37° C. incubator equilibrated to 5% CO2.

Src family kinases = conditions: cited from earlier work

Chain of Hck (P08631 whole entry, species assumed, the tested form may be a part): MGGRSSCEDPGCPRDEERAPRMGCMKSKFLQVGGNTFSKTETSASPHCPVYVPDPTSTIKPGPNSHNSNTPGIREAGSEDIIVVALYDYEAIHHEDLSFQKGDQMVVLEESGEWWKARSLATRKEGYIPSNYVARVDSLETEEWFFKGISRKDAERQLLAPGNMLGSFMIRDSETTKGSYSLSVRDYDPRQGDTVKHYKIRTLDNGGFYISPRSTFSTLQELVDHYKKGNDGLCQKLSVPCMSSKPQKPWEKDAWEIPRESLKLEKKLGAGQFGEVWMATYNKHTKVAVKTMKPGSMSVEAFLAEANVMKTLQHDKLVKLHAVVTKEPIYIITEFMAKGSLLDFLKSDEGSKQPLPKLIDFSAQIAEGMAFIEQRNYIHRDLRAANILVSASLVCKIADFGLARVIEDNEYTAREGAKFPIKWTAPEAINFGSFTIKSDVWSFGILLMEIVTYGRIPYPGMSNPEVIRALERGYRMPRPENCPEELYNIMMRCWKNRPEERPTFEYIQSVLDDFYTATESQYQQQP

Compound: 4-amino-5-(4-chlorophenyl)-7-(t-butyl)pyrazolo[3,4-d]pyrimidine [PP2]
- IC50 (human T cells): 600 nM
- IC50 (Hck): 5 nM

Compound: COc1cc2ncnc(Nc3cccc(Br)c3)c2cc1OC [PD153035, 4-[(3-Bromophenyl)amino]-6,7-dimethoxyquinazoline]
- effect on PPAR-[Gamma]:SRC-1 complex [1]: no effect

Compound: Nc1ncnc2c1cnn2-c1ccccc1 [PP3, 4-Amino-7-phenylpyrazol[3,4-d]pyrimidine]
- effect on PPAR-[Gamma]:SRC-1 complex [1]: no effect
- activity against Src family kinases (Src family kinases): inactive

Compound: CN(CCOc1ccc(CC2SC(=O)NC2=O)cc1)c1ccccn1 (stereo not drawn) [rosiglitazone]
- increase of fluorescence intensity of the PPAR-[Gamma]:SRC-1 PCA ([1]; 15 micromolar rosiglitazone for 90 minutes vs unstimulated): 6 fold
